Results on one compound are retold here after US20220016079A1, “COMBINATION TREATMENT OF HIV INFECTIONS” (priority 2018, published 2022).

The test system of data set [1] is 2D10 cells. Description: Cytotoxicity by LDH assay in 2D10 cells. It counts as cell-based. The note with it: 0 to 20 μM, 48 h. How it is done: Drug titration was conducted.
For analysis of cell viability, cells (100,000 cells/100 μL) were treated in triplicate for 48 h with increasing concentrations of Debio-1143 or other known LRAs (0 to 20 μM). Cellular cytotoxicity was analyzed by Lactate dehydrogenase (LDH) assay. LDH is an oxidoreductase enzyme that catalyzes the interconversion of pyruvate and lactate. Cells release LDH into the bloodstream after tissue damage or red blood cell hemolysis. Since LDH is a fairly stable enzyme, it has been widely used to evaluate the presence of damage and toxicity of tissue and cells. In this particular, LDH reduces NAD to NADH, which is specifically detected by colorimetric (490 nm) assay.

The subject of data set [2] is HIV-1 (JR-CSF). The data set is described as follows: Efficacy study in HIV-1 infected humanized BLT mice: HIV-1 loads in blood (qPCR). It counts as in vivo. As to conditions: 4 weeks of treatment starting 12 weeks after infection; n=8 per group. The source says: Methods: Humanized BLT mice were generated by implanting human fetal liver and thymus tissues under the kidney capsule of an immunodeficient NOD scid gamma (NSG=NOD.Cg-Prkdc^scidII12rg^tm1Wjl/SzJ) mouse, followed by an administration of autologous human fetal liver CD34+ cells (human hematopoietic stem cells). In BLT mice, T cell education occured in the human thymic tissue, resulting in complete systemic reconstitution of all major human hematopoietic lineages including T, B, monocyte/macrophage, dendritic, and natural killer cells. The extensive systemic and genital mucosal reconstitution with human lymphoid cells rendered female humanized BLT mice susceptible to both vaginal and rectal HIV infection. […]
R5 HIV (JR-CSF) was produced by 293T transfection and quantified by p24 ELISA. Humanized mice were infected with JR-CSF (200 ng of p24) and viral replication quantified weekly by qPCR for up to 16 weeks.
Methods: Thirty-two BLT mice were infected with HIV-1. 12 weeks later mice were split in 4 groups (n=8), treated with various regimen and analyzed for 6 weeks. […] Body weight, HIV-1 loads and PD-1 expression on CD8+ T cells were analyzed once weekly. […] The remaining mice (4×5=20) were sacrificed 2 weeks after treatment completion and viral RNA levels in organ reservoirs (spleen, thymic organoid, lung, spleen, lymph nodes and liver) were quantified by qPCR.

For data set [3], the system named is latent HIV-1 in resting CD4+ T cells. Description: Ex vivo HIV-1 reactivation in human resting CD4+ T cells from ART-treated HIV-1-infected humanized BLT mice (HIV RNA in supernatant). The class given is cell-based. Here is the method: The efficacy of IAPa, ICI or IAPa/ICI combinations in reversing HIV-1 latency was tested in resting CD4+ T cells derived from ART-treated HIV-1-infected humanized BLT mice.
Human resting CD4+ T cells from ten mice were isolated from blood, thymic organoid, lung, spleen, bone marrow, lymph nodes and liver. Isolated human resting CD4+ T cells were pooled, counted, split and treated in duplicate for 48 h with different IAPa (1 μM) or ICI (10 μg/ml) in monotherapy, or the IAPa/ICI combinations. Amounts of virions released from cells were quantified at the indicated time points by quantifying HIV RNA levels (HIV RNA copies/mL) in supernatant of cell culture using one-step reverse transcriptase quantitative real-time PCR (ABI custom TaqMan Assays-by-Design) according to the manufacturer's instructions. Primers were 5-[…]-3 and 5-[…]-3, and MGB probe 5-FAM-[…]-Q-3, where FAM is 6-carboxyfluorescein.
The experiment was carried out using the same agents as described above for Example 8.1 (with the exception that no birinapant was used).

Data set [4] has as its system latent HIV-1 in rCD4+ cells co-cultured with CD8+ cells. The data set is described as follows: HIV-1 reactivation in ex vivo co-cultures of rCD4+ and CD8+ cells from an ART-treated HIV patient (HIV RNA in supernatant). It counts as cell-based, human. How it is done:
The efficacy of IAPa, ICI or IAPa/ICI combinations in reversing HIV-1 latency was tested in HIV-1 infected rCD4+ cells co-cultured for 48 h with CD8+ cells from the same donor.
Method: Blood from one HIV-1-infected patient under ART was collected (500 mL) and CD4+ and CD8+ cells isolated using beads coated with specific antibodies following manufacturer's instruction (MojoSort™ Human Cell Isolation Kits from Biolegend). The CD4+ T cells were re-infected with HIV-1 (JR-CSF) (1 μg of p24), incubated for 3 days to allow establishment of infection, and treated with ART ([…]) for 7 days to ensure presence of enough latent HIV CD4+ cells (rCD4+) in the culture. Upon ART removal, rCD4 were then isolated following manufacturer's instruction (EasySep™ Human Resting CD4+ T Cell Isolation Kit). The isolated rCD4 were mixed with autologous (from the same patient) uninfected CD8+ T cells at a 1:1 ratio (100,000 cells) and incubated in duplicate for 48 h with different IAPa ([…]) or ICI (10 μg/ml) in monotherapy, or the IAPa/ICI combinations. Amounts of virions released from cells were quantified at the indicated time points by quantifying HIV RNA levels (HIV RNA copies/mL) in supernatant of cell culture using one-step reverse transcriptase quantitative real-time PCR (ABI custom TaqMan Assays-by-Design) according to the manufacturer's instructions. Primers were 5-[…]-3 and 5-[…]-3, and MGB probe 5-FAM-[…]-Q-3, where FAM is 6-carboxyfluorescein.

As to `CN[C@@H](C)C(=O)N[C@H]1CN(C(=O)CC(C)C)CC[C@H]2CC[C@@H](C(=O)NC(c3ccccc3)c3ccccc3)N2C1=O` [Debio 1143, (5S,8S,10aR)-N-benzhydryl-5-((S)-2-(methylamino)propanamido)-3-(3-methylbutanoyl)-6-oxodecahydropyrrolo[1,2-a][1,5]diazocine-8-carboxamide], the “cytotoxicity (LDH assay)” value in data set [1] was “did not exhibit any cytotoxicity”. For the same compound, the “HIV titers in blood” value in data set [2] is “increased viral titers”. In addition, the “latency reversal class (HIV RNA copies/ml in supernatant)” value was 2 (Between 2501 and 5000 RNA copies/ml were classified as “2”) in data set [3] (IAPa 1 μM monotherapy (0.1% DMSO, no ICI), 48 h); 2 (Between 2501 and 5000 RNA copies/ml were classified as “2”) in data set [3] (IAPa 1 μM with Control IgG1, 48 h); 2 (Between 2501 and 5000 RNA copies/ml were classified as “2”) in data set [3] (IAPa 1 μM with Control IgG2, 48 h); 3 (Subsequent classes were defined accordingly in steps of 500 RNA copies/ml) in data set [4] (IAPa 1 μM monotherapy (0.1% DMSO, no ICI), 48 h (Table 3)); 3 (Subsequent classes were defined accordingly in steps of 500 RNA copies/ml) in data set [4] (IAPa 1 μM with Control IgG1, 48 h (Table 3)); 3 (Subsequent classes were defined accordingly in steps of 500 RNA copies/ml) in data set [4] (IAPa 1 μM with Control IgG2, 48 h (Table 3)).
